Source: the NIST ThermoML archive (doi:10.1016/j.jct.2012.11.004)

Assay: mn = molality of the nth substance listed, in mol/kg
Conditions: 101 kPa, Liquid; for mass density: Vibrating tube method; for speed of sound: Pulse-echo method

O=S(=O)([O-])C(F)(F)F.O=S(=O)([O-])C(F)(F)F.O=S(=O)([O-])C(F)(F)F.[La+3] [lanthanum(III) trifluoromethanesulfonate] + CN(C)C=O
Conditions	mass density, 283.15 K [kg/m3]	mass density, 293.15 K [kg/m3]	mass density, 298.15 K [kg/m3]	mass density, 303.15 K [kg/m3]	mass density, 313.15 K [kg/m3]	mass density, 323.15 K [kg/m3]	mass density, 333.15 K [kg/m3]	speed of sound, 298.15 K [m/s]
m1 = 0.02162	966.85	957.33	952.56	947.79	938.21	928.58	918.9	1456
m1 = 0.02944	970.04	960.51	955.75	950.97	941.39	931.77	922.1	1455.5
m1 = 0.03946	974.16	964.64	959.87	955.09	945.5	935.87	926.19	1455
m1 = 0.04997	978.49	968.96	964.2	959.42	949.83	940.2	930.52	1454.3
m1 = 0.06066	–	–	–	–	–	–	–	1453.6
m1 = 0.0607	982.91	973.38	968.61	963.83	954.24	944.62	934.95	–
m1 = 0.07649	989.57	980.03	975.24	970.46	960.87	951.24	941.56	1452.5
m1 = 0.09777	998.57	989.02	984.24	979.46	969.86	960.23	950.54	1450.8
m1 = 0.1172	1006.98	997.41	992.63	987.84	978.22	968.57	958.88	1449.4
m1 = 0.136	1015.16	1005.59	1000.8	996	986.37	976.72	967.03	1448
m1 = 0.1591	1025.46	1015.87	1011.07	1006.26	996.63	986.96	977.26	1446.3
m1 = 0.1792	1034.5	1024.89	1020.09	1015.28	1005.64	995.97	986.26	1444.9

O=S(=O)([O-])C(F)(F)F.O=S(=O)([O-])C(F)(F)F.O=S(=O)([O-])C(F)(F)F.[Lu+3] [lutetium(III) trifluoromethanesulfonate] + CC(=O)N(C)C
Conditions	mass density, 283.15 K [kg/m3]	mass density, 293.15 K [kg/m3]	mass density, 298.15 K [kg/m3]	mass density, 303.15 K [kg/m3]	mass density, 313.15 K [kg/m3]	mass density, 323.15 K [kg/m3]	mass density, 333.15 K [kg/m3]	speed of sound, 298.15 K [m/s]
m1 = 0.02294	960.37	951.15	946.53	941.91	932.67	923.39	914.07	1455.7
m1 = 0.03057	963.84	954.61	950	945.38	936.11	926.83	917.5	1455.4
m1 = 0.0402	968.22	958.99	954.37	949.75	940.48	931.19	921.86	1455
m1 = 0.05161	973.43	964.19	959.57	954.95	945.68	936.38	927.05	1454.7
m1 = 0.06304	978.74	969.5	964.89	960.24	950.96	941.65	932.31	1454.3
m1 = 0.07962	986.46	977.21	972.58	967.95	958.66	949.34	939.99	1453.7
m1 = 0.1022	997.19	987.92	983.29	978.65	969.35	960.02	950.65	1452.2
m1 = 0.1222	1006.81	997.54	992.9	988.26	978.94	969.59	960.2	1451.5
m1 = 0.1412	1016.12	1006.84	1002.2	997.55	988.22	978.86	969.47	1450.5
m1 = 0.1647	1027.86	1018.56	1013.91	1009.26	999.92	990.55	981.13	1449
m1 = 0.1843	1037.79	1028.48	1023.83	1019.21	1009.81	1000.43	991.01	1448.3

O=S(=O)([O-])C(F)(F)F.O=S(=O)([O-])C(F)(F)F.O=S(=O)([O-])C(F)(F)F.[Lu+3] [lutetium(III) trifluoromethanesulfonate] + CN(C)C=O
Conditions	mass density, 283.15 K [kg/m3]	mass density, 293.15 K [kg/m3]	mass density, 298.15 K [kg/m3]	mass density, 303.15 K [kg/m3]	mass density, 313.15 K [kg/m3]	mass density, 323.15 K [kg/m3]	mass density, 333.15 K [kg/m3]	speed of sound, 298.15 K [m/s]
m1 = 0.02151	967.66	958.14	953.37	948.59	939.01	929.39	919.7	1455.4
m1 = 0.02883	970.96	961.44	956.67	951.89	942.3	932.66	922.98	1454.7
m1 = 0.03776	975	965.46	960.69	955.91	946.32	936.69	927	1454
m1 = 0.04886	980.05	970.51	965.73	960.95	951.35	941.71	932.02	1452.9
m1 = 0.0599	985.11	975.57	970.79	966.01	956.39	946.76	937.05	1451.8
m1 = 0.07513	992.17	982.63	977.84	973.05	963.43	953.77	944.07	1450.5
m1 = 0.09644	1002.19	992.62	987.83	983.03	973.4	963.72	954	1448
m1 = 0.1156	1011.35	1001.77	996.97	992.16	982.52	972.84	963.09	1445.9
m1 = 0.1337	1020.13	1010.53	1005.72	1000.91	991.25	981.57	971.83	1444.2
m1 = 0.1557	1031	1021.38	1016.56	1011.75	1002.08	992.37	982.6	1441.8
m1 = 0.1744	1040.3	1030.66	1025.84	1021.02	1011.33	1001.62	991.84	1439.7
